Results taken from patent publication US20110178016A1, “PULSE PARATHYROID HORMONE FOR TREATMENT OF THE HEM[…], STROMAL CELL LOSS, AND VASCULAR INJURY RESULTING FROM ACUTE EXPOSURE TO LETHAL RADIATION” (priority 2008, published 2011).
Entries after “also recorded” stand apart in the source; their conditions may differ.

Test system: mice exposed to lethal radiation (772 cGy)
Assay: Survival of mice after lethal irradiation (772 cGy) with PTH treatment
Type: in vivo, B6 mice
Conditions: for Thirty day survival: no treatment 50%; for 49 day survival: vehicle 60%
Procedure: In a study of 98 mice exposed to lethal irradiation, half received placebo (saline) and half received daily PTH 80 mcg/kg/day for 28 days. There was a survival advantage in the PTH treated group, 24/49 survived vs placebo, 16/49, (95% CI, 0.7707, 2.462).
80 ug/day PTH therapy followed lethal irradiation (772 cGy) exposure. 49 mice were treated with daily PTH (80 mcg/kg/d sc×28 days) 24 hours following a lethal radiation exposure of 772 cGy and compared to 49 vehicle treated control animals. Outcome measures included platelet counts, survival, and other hematopoietic studies. When censoring for technical deaths, 46 animals were analyzed in the placebo group (daily saline injections) with 47 analyzed from the daily PTH 80 mcg/kg/day treatment. […] Thirty-day survival in the placebo group was 18/46 or 39%. Of the PTH treated animals 26/47 animals survived (55%, p=0.2).
In another set of dose finding experiments, the same radiation exposure was used (772 cGy). Three treatment groups were studied: (1) untreated (no placebo, n=8), (2) treated with 200 mcg/kg PTH daily beginning 24 hours after radiation exposure, n=12, (3) treated with 200 mcg/kg PTH twice daily beginning 24 hours after radiation exposure, n=12.
Comparison was made of animals treated with PTH, 200 ug/day, 200 ug twice daily (BID) vs those receiving no PTH treatment following lethal irradiation (772 cGy).
Three groups of B6 mice underwent irradiation.
Group 1 received no treatment, n=8.
Group 2 received PTH, 200 micrograms/kg/day, n=10, first begun 24 hours following radiation exposure to 772 cGy and continued for 28 days.
Group 3 received the same duration of PTH but instead was treated twice daily, 200 micrograms/kg/day BID for a daily total dose of 400 mcg/kg/day, n=12.
Four cohorts of B6 mice were irradiated to uniform, total body, midline tissue dose at a dose rate of 80+2.5 cGy/min to a dose of 772 cGy.
Group 1 received vehicle control (saline) treatment×28 days, beginning 24 hours after radiation, n=10.
Group 2 received PTH, 400 micrograms/kg/day, n=10, first begun 24 hours following radiation exposure to 772 cGy and continued for 28 days.
Group 3 received PTH, 1000 micrograms/kg/day, n=10, 24 hours following radiation, and then 400 mcg/kg/day for 7 days.
Group 4 received PTH, 400 micrograms/kg/day, n=10, 24 hours following radiation, and continued for 7 days.

CC[C@H](C)[C@H](NC(=O)[C@H](CCC(=O)O)NC(=O)[C@H](CO)NC(=O)[C@@H](NC(=O)[C@@H](N)CO)C(C)C)C(=O)N[C@@H](CCC(N)=O)C(=O)N[C@@H](CC(C)C)C(=O)N[C@@H](CCSC)C(=O)N[C@@H](Cc1cnc[nH]1)C(=O)N[C@@H](CC(N)=O)C(=O)N[C@@H](CC(C)C)C(=O)NCC(=O)N[C@@H](CCCCN)C(=O)N[C@@H](Cc1cnc[nH]1)C(=O)N[C@@H](CC(C)C)C(=O)N[C@@H](CC(N)=O)C(=O)N[C@@H](CO)C(=O)N[C@@H](CCSC)C(=O)N[C@@H](CCC(=O)O)C(=O)N[C@@H](CCCN=C(N)N)C(=O)N[C@H](C(=O)N[C@@H](CCC(=O)O)C(=O)N[C@@H](Cc1c[nH]c2ccccc12)C(=O)N[C@@H](CC(C)C)C(=O)N[C@@H](CCCN=C(N)N)C(=O)N[C@@H](CCCCN)C(=O)N[C@@H](CCCCN)C(=O)N[C@@H](CC(C)C)C(=O)N[C@@H](CCC(N)=O)C(=O)N[C@@H](CC(=O)O)C(=O)N[C@H](C(=O)N[C@@H](Cc1cnc[nH]1)C(=O)N[C@@H](CC(N)=O)C(=O)N[C@@H](Cc1ccccc1)C(=O)O)C(C)C)C(C)C [PTH, Teriparatide]
survival (survived/total) (98 mice, lethal irradiation, PTH 80 mcg/kg/day for 28 days, placebo 16/49): 24/49
reduction in mortality (772 cGy, 200 mcg/kg experiments, LD50/30 changed to LD25/30): 25%
thrombocytopenia duration or nadir (772 cGy, PTH 80 mcg/kg/day vs placebo): no significant difference
Thirty day survival (772 cGy, PTH 200 mcg/kg daily for 28 days (8/12)): 67%
Thirty day survival (772 cGy, PTH 200 mcg/kg twice daily for 28 days (9/12)): 75%
49 day survival (772 cGy, PTH 400 mcg/kg/day x 7 days (Group 4), p=0.02): 100%
49 day survival (772 cGy, PTH 400 micrograms/kg/day x 28 days (Group 2, 9/10), p=0.05): 90%
49 day survival (772 cGy, PTH 1000 micrograms/kg/day then 400 mcg/kg/day for 7 days (Group 3, 9/10), p=0.05): 90%
preputial inflammation and abscess among survivors (1000 mcg/kg dose group, control survivors 3/6): ⅙
30-day survival (7 day course of PTH 400 mcg/kg/day following an LD50/30 radiation exposure): 100%
survival (daily or twice doses of PTH, lethal irradiation dose expected to result in 50% death of mice (summary)): 100%
preputial inflammation and abscess / infection among survivors (other PTH groups (400 mcg/kg/day x 28 days or x 7 days), control survivors 3/6): None were observed; also recorded: prevents infection
